{
  "source": "patent US6784165B1",
  "about": "“Treatment of heart rhythm disturbances with N6-substituted-5′-(N-substituted) carboxamidoadenosines” (Aderis Pharmaceuticals, Inc., priority 1999, dated 2004)",
  "key": {"[1]": {"tested_on": "adenosine A1 receptor", "assay": "Rat isolated Langendorff heart paced at 360 bpm: AV conduction (S-V interval) and coronary blood flow", "conditions": "at 6.8 nM and 8.3 nM, rat isolated heart", "experimental": "Rat isolated hearts were prepared according to the method of Langendorff in which the coronary vasculature was perfused in a retrograde fashion at constant pressure via the aorta. Coronary blood flow was determined by measuring the volume of fluid leaving the heart. Heart rate was maintained at 360 beats per minute by electrical pacing of the right atrium. Atrioventricular (AV) conduction was determined as the time from the atrial stimulus to the beginning of ventricular depolarization (S-V interval)."}, "[2]": {"tested_on": "conscious rats", "assay": "Heart rate and blood pressure in conscious unrestrained rats (intravenous or oral)", "type": "in vivo, rat", "experimental": "(§1) Male Sprague-Dawley rats were anesthetized with sodium pentobarbital 50 mg/kg i.p., and indwelling catheters were surgically implanted in the carotid artery and jugular vein two days prior to each experiment. During all subsequent experiments, rats were conscious and unrestrained. The carotid artery cannula was attached to a pressure transducer and blood pressure was recorded continuously throughout each experiment using a Grass polygraph. Heart rate was derived from the blood pressure signal using a Grass tachygraph. The measured parameters were allowed from 30 to 90 minutes to stabilize before the administration of test compound.\nCompound A was administered by intravenous administration via the jugular vein indwelling catheter or by oral gavage using a curved, bulbed oral dosing cannula. Food and water were available ad libitum."}, "[3]": {"tested_on": "guinea pig isolated heart", "assay": "Guinea pig isolated electrically paced heart: effect of heart rate on AV interval and heart block", "experimental": "Guinea pig isolated hearts were prepared according to the method of Langendorff in which the coronary vasculature was perfused in a retrograde fashion at constant pressure via the aorta. Compound A was administered to the spontaneously beating hearts by infusion into the perfusion line supplying buffer to the coronary vasculature. The concentration of Compound A was adjusted by changes in the infusion rate and/or changes in the concentration of infusion solutions. The concentration of Compound A present in the perfusate was calculated by dividing the rate of Compound A infused by the coronary flow rate. Spontaneously beating heart rate and AV interval were recorded.\nGuinea pig isolated hearts were prepared according to the methods described in Example 5. In the first portion of the experiment designed to determine the effect of heart rate on the negative dromotropic activity of Compound A, hearts were allowed to beat spontaneously or electrically paced either at 200 beats per minute (approximately 20% above the spontaneous rate) or at 300-360 beats per minute (approximately 80% above the spontaneous rate). Atrioventricular (AV) conduction interval (AV interval) was determined as the time from the atrial stimulus to the beginning of ventricular depolarization. The AV interval measurements were performed at each pacing rate with increased concentrations of Compound A as described in Example 5. Upon electrical pacing at 200 beats per minute, Compound A at a mean concentration of 3.9 nM produced a mean maximal 58% increase in AV interval, and heart block at a mean minimal concentration of 5.1 nM. […] The results are summarized in the table below, with data from spontaneously beating hearts included for comparative purposes: […]"}, "[4]": {"molecular_target": "T1, adenosine A1 receptor (Rattus norvegicus, UniProt P25099)", "T1 sequence (P25099 1-326)": "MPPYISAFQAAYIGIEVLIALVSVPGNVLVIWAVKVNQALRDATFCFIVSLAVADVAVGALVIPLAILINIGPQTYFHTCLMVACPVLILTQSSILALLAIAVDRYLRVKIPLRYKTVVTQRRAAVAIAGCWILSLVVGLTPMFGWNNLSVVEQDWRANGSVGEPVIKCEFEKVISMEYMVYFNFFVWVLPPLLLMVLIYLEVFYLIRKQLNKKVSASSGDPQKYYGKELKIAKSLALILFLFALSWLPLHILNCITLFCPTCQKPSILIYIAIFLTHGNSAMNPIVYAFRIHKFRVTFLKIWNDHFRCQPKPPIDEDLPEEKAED", "assay": "Negative inotropic response in electrically stimulated rat isolated left atria (isoproterenol-stimulated)", "set-up": "from tissue; host or cells: whole animal (conscious Sprague-Dawley rats)", "conditions": "plateau negative inotropic response, 1 Hz, isoproterenol 10^−8 M", "excerpt": "(§2) Concentration dose-effect curve data were fitted to a sigmoid curve using Graphpad PRIZM™ software to obtain the concentration or dose of test compound that produces 50% of the maximal obtainable response, in vitro EC50 or in vivo ED50 values, for activation of the adenosine A1 receptor. Responses measured to each dose were the plateau negative inotropic response to cumulative additions of test compound in the isolated left atria and the peak bradycardia in response to bolus intravenous injections of test compound in conscious rats. Oral bioavailability was estimated from pharmacodynamic responses using the expression: (Response AUCoral/Response AUCiv)(Doseiv/Doseoral), where Response AUC is the area under the curve for test compound-induced bradycardia over time.\nMale Sprague-Dawley rats weighing 200-350 grams were sacrificed and the hearts rapidly removed and placed in a warmed Krebs-Henseleit buffer solution. The left atria were dissected free from the hearts and suspended in 30 mL jacketed isolated organ baths filled with Krebs-Henseleit buffer, oxygenated with 95% O2/5% CO2 and maintained at 37° C. Tissues were connected to a force displacement transducer under a resting tension of 1 gram. Atria were stimulated electrically at 1 Hz, 1 msec duration and supramaximal voltage to produce regular contractions of tissue.\nAdenosine A1 agonists were added to the baths at increasing cumulative concentrations until a maximal decrease in the force of contraction was obtained. Because adenosine A1 agonists have only a small direct negative inotropic action in rat atria, it was necessary to stimulate β-adrenergic receptors to produce positive inotropy in order to maximize the negative intropic response and thereby facilitate measurement. Under these conditions, adenosine A1 agonists acting at A1 receptors indirectly reduce the β-adrenergic mediated positive inotropy. Accordingly, the β-adrenergic agonist isoproterenol (10^−8 M) was added to the organ baths approximately 15 minutes before the addition of the adenosine A1 agonist."}, "[5]": {"molecular_target": "T1, adenosine A1 receptor", "assay": "Peak bradycardia after bolus intravenous injection in conscious rats", "type": "in vivo", "set-up": "from tissue; host or cells: whole animal (conscious Sprague-Dawley rats)", "conditions": "rat, bolus intravenous injections, read-out: ED50", "excerpt": "as §2, §1\nTest compounds were administered either by oral gavage using a curved, bulbed oral dosing cannula, or by intravenous administration via the jugular vein indwelling catheter. Rats dosed orally were fasted overnight before dosing, with water available ad libitum. Because the heart rate responses following intravenous administration of test compound rapidly returned to baseline, more than one dose of test compound could be administered to each rat. However, the responses to oral administration of test compounds were of a prolonged duration and therefore only a single dose could be administered to each rat."}, "[6]": {"conditions": "0.1 μg/kg/min intravenously for 120 minutes"}},
  "data": [
    {"smiles": "CCNC(=O)[C@H]1O[C@@H](n2cnc3c(NC4CCCC4)ncnc32)[C@H](O)[C@@H]1O", "note": "[Compound A, ethyl N^6-cyclopentyladenosine-5′-uronamide]", "values": [
      {"measurement": "effect on coronary blood flow", "setting": "[1]", "result": "no effect"},
      {"measurement": "mean blood pressure", "setting": "[2]; [6]", "result": "remained unchanged"},
      {"measurement": "mean decrease in heart rate", "setting": "[2]; [6]", "result": 34, "unit": "%"},
      {"measurement": "mean decrease in heart rate", "setting": "[2]; 100 μg/kg oral", "result": 40, "unit": "%"},
      {"measurement": "change in blood pressure", "setting": "[2]; intravenous dose range 0.05 μg/kg/min to 0.1 μg/kg/min", "result": "no change"},
      {"measurement": "ED50 for induction of bradycardia", "setting": "[2]; intravenously for 120 minutes, conscious rats", "result": 0.1, "unit": "µg/kg/min"},
      {"measurement": "change in blood pressure", "setting": "[2]; oral dose range 30 μg/kg to 100 μg/kg", "result": "no change"},
      {"measurement": "mean maximal increase in AV interval", "setting": "[3]; paced at 200 beats per minute, at 3.9 nM", "result": 58, "unit": "%"},
      {"measurement": "Mean Concentration of Compound A Required to Produce Maximal AV Interval", "setting": "[3]; paced at 200 bpm", "result": 3.9, "unit": "nM"},
      {"measurement": "Mean Minimal Concentration of Compound A Required to Produce Heart Block", "setting": "[3]; paced at 200 bpm", "result": 5.1, "unit": "nM"},
      {"measurement": "mean maximal increase in AV interval", "setting": "[3]; paced at 300-360 beats per minute, at 1.45 nM", "result": 20, "unit": "%"},
      {"measurement": "Mean Concentration of Compound A Required to Produce Maximal AV Interval", "setting": "[3]; paced at 300-360 bpm", "result": 1.45, "unit": "nM"},
      {"measurement": "Mean Minimal Concentration of Compound A Required to Produce Heart Block", "setting": "[3]; paced at 300-360 bpm", "result": 2.1, "unit": "nM"},
      {"measurement": "EC50", "setting": "[4]", "result": 15.5, "unit": "nM"},
      {"measurement": "ED50", "setting": "[5]", "result": 0.0083, "unit": "µmol/kg"}
    ]}
  ]
}
